The target in assay [1] is Muscarinic acetylcholine receptor. In words: Displacement of [3H]quinuclidinyl benzilate(QNB) binding from muscarinic receptors of rat cerebral cortex; 4800-6300. In kind it is tissue-based. For orientation: Displacement assays read how much labelled ligand stays bound in the presence of the test substance.
Assay [2] shares this target. Briefly: Displacement of [3H]- oxotremorine-M (OXO-M) binding from muscarinic receptors of rat cerebral cortex; 44-170. The assay is classed as tissue-based.
The target in assay [3] is Muscarinic acetylcholine receptor (Rattus norvegicus) (UniProt P08482+P08483+P08485+P08911+P10980). Briefly: Relative affinity of oxotremorine-M (OXO-M) and [3H]quinuclidinyl benzilate (QNB) for muscarinic receptors. The assay is classed as protein assay.
For assay [4], the target named is Muscarinic acetylcholine receptor. In words: Displacement of [3H]quinuclidinyl benzilate(QNB) binding from muscarinic receptors of rat cerebral cortex; 2600-4400. In kind it is tissue-based.
Assay [5] shares this target. In words: Displacement of [3H]- oxotremorine-M (OXO-M) binding from muscarinic receptors of rat cerebral cortex; 44-48. The assay is classed as tissue-based.
The target is the same in assay [6]. In words: Displacement of [3H]quinuclidinyl benzilate(QNB) binding from muscarinic receptors of rat cerebral cortex. The assay is classed as tissue-based.
For assay [7] the target is unchanged. In words: Displacement of [3H]- oxotremorine-M (OXO-M) binding from muscarinic receptors of rat cerebral cortex; 205-310. The assay is classed as tissue-based.
Assay [8] shares this target. In words: Displacement of [3H]quinuclidinyl benzilate(QNB) binding from muscarinic receptors of rat cerebral cortex; 12500-16500. In kind it is tissue-based.
Assay [9] has the same target. Briefly: Displacement of [3H]- oxotremorine-M (OXO-M) binding from muscarinic receptors of rat cerebral cortex; 50-65. The assay is classed as tissue-based.
For assay [10] the target is unchanged. In words: Displacement of [3H]quinuclidinyl benzilate(QNB) binding from muscarinic receptors of rat cerebral cortex; 2000-4800. In kind it is tissue-based.
Assay [11] has the same target. Briefly: Displacement of [3H]- oxotremorine-M (OXO-M) binding from muscarinic receptors of rat cerebral cortex; 10-30. In kind it is tissue-based.
The subject of assay [12] is Rattus norvegicus. Briefly: Effective dose required to cause 50% fall in mean blood pressure (BP) […] of urethane anesthetized rats after iv administration of compound. In kind it is functional.
Assay [13] deals with Rattus norvegicus. In words: Dose required to produce a change in the mean power spectrum of EEG equivalent to that of a standard dose (0.32 mg/Kg i.v.) of arecoline after iv administration of compound. The assay is classed as functional.
Assay [14] is described as follows: Ratio of change in mean blood pressure (BP) to that of mean power spectrum of EEG. The assay is classed as functional.
The target in assay [15] is Muscarinic acetylcholine receptor. Briefly: Displacement of [3H]quinuclidinyl benzilate(QNB) binding from muscarinic receptors of rat cerebral cortex; 2500-5600. In kind it is tissue-based.
For assay [16] the target is unchanged. Briefly: Displacement of [3H]- oxotremorine-M (OXO-M) binding from muscarinic receptors of rat cerebral cortex. In kind it is tissue-based.
Assay [17] shares this target. In words: Displacement of [3H]- oxotremorine-M (OXO-M) binding from muscarinic receptors of rat cerebral cortex; 66-83. The assay is classed as tissue-based.
Assay [18] has the same target. Briefly: Displacement of [3H]quinuclidinyl benzilate(QNB) binding from muscarinic receptors of rat cerebral cortex; 1400-2900. In kind it is tissue-based.
Assay [19] shares this target. In words: Displacement of [3H]quinuclidinyl benzilate(QNB) binding from muscarinic receptors of rat cerebral cortex; 2700-3000. In kind it is tissue-based.
Assay [20] has the same target. In words: Displacement of [3H]- oxotremorine-M (OXO-M) binding from muscarinic receptors of rat cerebral cortex; 230-335. In kind it is tissue-based.
For assay [21] the target is unchanged. In words: Displacement of [3H]- oxotremorine-M (OXO-M) binding from muscarinic receptors of rat cerebral cortex; 65-110. In kind it is tissue-based.
Assay [22] shares this target. In words: Displacement of [3H]quinuclidinyl benzilate(QNB) binding from muscarinic receptors of rat cerebral cortex; 3400-10000. The assay is classed as tissue-based.
The target is the same in assay [23]. In words: Displacement of [3H]- oxotremorine-M (OXO-M) binding from muscarinic receptors of rat cerebral cortex; 12-62. In kind it is tissue-based.
For assay [24] the target is unchanged. Briefly: Displacement of [3H]quinuclidinyl benzilate(QNB) binding from muscarinic receptors of rat cerebral cortex; 1400-2700. The assay is classed as tissue-based.
The target is the same in assay [25]. Briefly: Displacement of [3H]- oxotremorine-M (OXO-M) binding from muscarinic receptors of rat cerebral cortex; 90-155. The assay is classed as tissue-based.
Assay [26] shares this target. In words: Displacement of [3H]quinuclidinyl benzilate(QNB) binding from muscarinic receptors of rat cerebral cortex; 36000-40000. In kind it is tissue-based.
For assay [27] the target is unchanged. Briefly: Displacement of [3H]- oxotremorine-M (OXO-M) binding from muscarinic receptors of rat cerebral cortex; 83-128. The assay is classed as tissue-based.
Assay [28] shares this target. In words: Displacement of [3H]quinuclidinyl benzilate(QNB) binding from muscarinic receptors of rat cerebral cortex; 6200-9000. In kind it is tissue-based.
The target is the same in assay [29]. In words: Displacement of [3H]quinuclidinyl benzilate(QNB) binding from muscarinic receptors of rat cerebral cortex; 3400-8000. The assay is classed as tissue-based.
The target is the same in assay [30]. In words: Displacement of [3H]- oxotremorine-M (OXO-M) binding from muscarinic receptors of rat cerebral cortex; 155-265. The assay is classed as tissue-based.

`CO/N=C/C12CCCN(CC1)C2` (stereo not drawn): the IC50 (commonly the concentration at which inhibition is half-maximal) in [1] worked out at 5200 nM; in assay [2] it was 60 nM. The Ratio in assay [3] was determined as 87.

For `CO/N=C(\C)C12CCCN(CC1)C2` (stereo not drawn), the 50% inhibitory concentration (IC50) in assay [4] was 3400 nM; in assay [5], 46 nM. Besides, in [3], the Ratio was 74.

For the molecule `CCCCO/N=C/[C@H]1CN2CC[C@H]1C2`, the values for the IC50 in assay [6] and in assay [7] were 3600 nM and 252 nM, respectively. Further, the Ratio in [3] came out at 14.

Take `CO/N=C(\C)C12CCN(CC1)C2`: the values for the concentration for half-maximal inhibition (IC50) in assay [8] and in assay [9] were 14000 nM and 55 nM, respectively. Besides, the Ratio in [3] was 255.

Regarding `CO/N=C/[C@H]1CN2CC[C@H]1C2`, the IC50 in [10] is listed as 3100 nM; in [11], 15 nM. For the same molecule, the ED50 (as a rule, the midpoint of the dose-response relation) in the assay on Rattus norvegicus [12] was 0.0031 mg/kg. In addition, the “ED Arec” value in the assay with Rattus norvegicus [13] stood at 0.0021 mg/kg. For the same molecule, the Ratio in assay [14] was determined as 1.5.

In the case of `CCO/N=C/[C@H]1CN2CC[C@H]1C2`, the figures for the IC50 in assay [15] and in assay [16] were 3700 nM and 160 nM, respectively. Moreover, the ED50 in the assay on Rattus norvegicus [12] is greater than 1.8 mg/kg. In addition, the “ED Arec” value with Rattus norvegicus [13] came to 0.23 mg/kg. For the same molecule, the figures for the Ratio in [3] and in assay [14] were 23 and greater than 7.8, respectively.

In the case of `CO/N=C(\C)C1CN2CCC1CC2` (stereo not drawn), the IC50 in [17] is 69 nM; in assay [18], 2000 nM. In [3], the Ratio worked out at 29.

Regarding `CCCO/N=C/[C@H]1CN2CC[C@H]1C2`, the figures for the IC50 in [19] and in assay [20] were 2900 nM and 278 nM, respectively. The Ratio in assay [3] is 10.

In the case of `CO/N=C/C1CN2CCC1CC2` (stereo not drawn), the IC50 amounted to 95 nM in [21] and 5800 nM in assay [22]. In [3], the Ratio turned out to be 61.

Take `C#CCO/N=C/[C@H]1CN2CC[C@H]1C2`: the values for the half-maximal inhibitory concentration (IC50) in assay [23] and in [24] were 25 nM and 1950 nM, respectively. Besides, the ED50 with Rattus norvegicus [12] was found to be 0.17 mg/kg. The “ED Arec” value with Rattus norvegicus [13] stood at 0.016 mg/kg. For the same molecule, the Ratio in assay [3] turned out to be 78; in assay [14], 10.6.

As for `CO/N=C/C12CCN(CC1)C2`, the IC50 in [25] is given as 118 nM; in [26], 38000 nM. In assay [3], the Ratio came out at 321.

On to `COC(=O)C1CN2CCC1CC2` (stereo not drawn), for which, in assay [3], the Ratio was 48.

For `CO/N=C(\C)[C@H]1CN2CC[C@H]1C2`, the IC50 in assay [27] was 99 nM; in assay [28], 7500 nM. Also, the Ratio in assay [3] was 76.

Turning to `CC/C(=N\OC)[C@H]1CN2CC[C@H]1C2`, the IC50 in [29] is on record as 5200 nM; in [30] it was 208 nM. The Ratio in assay [3] was determined as 25.

These data come from ChEMBL document CHEMBL1126440, “Design and synthesis of azabicyclic muscarinic agonists incorporating an oxime ether functionality” (Bioorg Med Chem Lett, 1992).
